Experimental data reported in patent US20060069132A1, “Azolecarboxamide herbicides” (priority 2004, published 2006).

Key:
[1] = test system: woolly cupgrass; assay: Test C pre-/postemergence herbicide test; assay type: in vivo, Eriochloa villosa
Outline: (§1)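 Emerged plants at the 1- to 4-leaf stage (2–18 cm), or freshly planted seeds, received test chemicals in a non-phytotoxic solvent mixture with surfactant. Response was visually scored against controls after 12 to 14 days in the greenhouse, on a 0 (no effect) to 100 (complete control) scale.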

[2] = test system: large crabgrass; assay: Test A pre-/postemergence herbicide test; assay type: in vivo, Digitaria sanguinalis
Outline: (§2)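 Both application timings were run together: directed soil spray over freshly planted seeds in sandy loam, and runoff spray onto 2–10 cm seedlings. Evaluation after ~10 days in greenhouse used a 0–100 visual scale versus untreated controls.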

[3] = test system: eastern black nightshade; assay: Test C pre-/postemergence herbicide test; assay type: in vivo, Solanum ptycanthum
Outline: as §1

[4] = test system: common (oilseed) sunflower; assay: Test C pre-/postemergence herbicide test; assay type: in vivo, Helianthus annuus
Outline: as §1

[5] = test system: Surinam grass; assay: Test C pre-/postemergence herbicide test; assay type: in vivo, Urochloa decumbens
Outline: as §1

[6] = test system: johnsongrass; assay: Test C pre-/postemergence herbicide test; assay type: in vivo, Sorghum halepense
Outline: as §1

[7] = test system: soybean; assay: Test C pre-/postemergence herbicide test; assay type: in vivo, Glycine max
Outline: as §1

[8] = test system: goosegrass; assay: Test C pre-/postemergence herbicide test; assay type: in vivo, Eleusine indica
Outline: as §1

[9] = test system: velvetleaf; assay: Test A pre-/postemergence herbicide test; assay type: in vivo, Abutilon theophrasti
Outline: as §2

[10] = test system: rice; assay: Test B pre-/postemergence herbicide test; assay type: in vivo, Oryza sativa; conditions: preemergence
Outline: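 Greenhouse pot assay with simultaneous preemergence (treated seed) and postemergence (2–18 cm seedlings) applications of surfactant-containing, non-phytotoxic solvent formulations. Response scored visually 13–15 days later on a 0–100 scale, 100 meaning complete control.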

[11] = 62 g ai/ha, preemergence, scale 0 to 100
[12] = 125 g ai/ha, scale 0 (no effect) to 100 (complete control), visual, 12 to 14 days, preemergence
[13] = 250 g ai/ha, scale 0-100, preemergence
[14] = 500 g ai/ha, scale 0 to 100 (0 no effect, 100 complete control), visual, 12 to 14 days, preemergence
[15] = Postemergence, 500 g ai/ha, 0 to 100 scale, 0 no effect, 100 complete control
[16] = Postemergence, 2000 g ai/ha, 0 to 100 scale, 0 no effect, 100 complete control
[17] = Preemergence, 2000 g ai/ha, visual rating, 0 to 100 scale (0 no effect, 100 complete control)
[18] = preemergence, 500 g ai/ha, visual injury, 0 to 100 scale (0 no effect, 100 complete control)
[19] = Preemergence, 500 g ai/ha, scale 0 to 100, 0 no effect, 100 complete control
[20] = Preemergence, 500 g ai/ha, visual rating, 0 to 100 scale (0 no effect, 100 complete control)

Q: Which results are given for CCNC(=O)c1cccc(NC(=O)c2sc(C(C)(C)C)nc2CC)n1 [Compound 213]?
A: Plant response rating, Cupgrass, Woolly [1, 11]: 0; Plant response rating, Cupgrass, Woolly [1, 12]: 0; Plant response rating, Cupgrass, Woolly [1, 13]: 0; Plant response rating, Cupgrass, Woolly [1, 14]: 30; Crabgrass, Large plant response rating [2, 15]: 20; Plant response rating, Crabgrass, Large [2, 16]: 30; Crabgrass, Large plant response rating [2, 17]: 95; Crabgrass, Large plant response rating [2, 18]: 55; Plant response rating, Nightshade [3, 11]: 100; Plant response rating, Nightshade [3, 12]: 100; Plant response rating, Nightshade [3, 13]: 100; Plant response rating, Nightshade [3, 14]: 100; Plant response rating, Sunflower [4, 11]: 0; Plant response rating, Sunflower [4, 12]: 0; Plant response rating, Sunflower [4, 13]: 0; Plant response rating, Sunflower [4, 14]: 0; Plant response rating, Surinam Grass [5, 11]: 0; Plant response rating, Surinam Grass [5, 12]: 0; Plant response rating, Surinam Grass [5, 13]: 20; Plant response rating, Surinam Grass [5, 14]: 60; Plant response rating, Johnsongrass [6, 11]: 0; Plant response rating, Johnsongrass [6, 12]: 55; Plant response rating, Johnsongrass [6, 13]: 60; Plant response rating, Johnsongrass [6, 14]: 80; Plant response rating, Soybean [7, 11]: 0; Plant response rating, Soybean [7, 12]: 0; Plant response rating, Soybean [7, 13]: 0; Plant response rating, Soybean [7, 14]: 0; Plant response rating, Goosegrass [8, 11]: 0; Plant response rating, Goosegrass [8, 12]: 60; Plant response rating, Goosegrass [8, 13]: 80; Plant response rating, Goosegrass [8, 14]: 90; Velvetleaf plant response rating [9, 15]: 30; Plant response rating, Velvetleaf [9, 16]: 25; Velvetleaf plant response rating [9, 17]: 35; Velvetleaf plant response rating [9, 18]: 15; Rice plant response rating (0 to 100 scale) ([10]; 125 g ai/ha, 0 = no effect, 100 = complete control): 0; Plant response rating, Rice ([10]; 500 g ai/ha, visual rating, 0 = no effect, 100 = complete control): 40

Q: What does the source list for CCn1nc(C(C)(C)C)cc1C(=O)Nc1cccc2c1CCN(C1CC1)C2=O [Compound 64]?
A: Plant response rating (0 = no effect, 100 = complete control), Cupgrass, Woolly ([1]; 62 g ai/ha, preemergence): 0; Plant response rating, Cupgrass, Woolly [1, 12]: 0; Plant response rating, Cupgrass, Woolly ([1]; 250 g ai/ha, scale 0 to 100 (0 no effect, 100 complete control), visual, 12 to 14 days, preemergence): 0; Cupgrass, Woolly plant response rating [1, 19]: 10; Plant response rating, Crabgrass, Large [2, 15]: 30; Plant response rating, Crabgrass, Large [2, 16]: 60; Crabgrass, Large plant response rating [2, 20]: 70; Crabgrass, Large plant response rating ([2]; Preemergence, 2000 g ai/ha, 0 to 100 scale, 0 no effect, 100 complete control): 100; Plant response rating (0 = no effect, 100 = complete control), Nightshade ([3]; 62 g ai/ha, preemergence): 0; Plant response rating, Nightshade [3, 12]: 50; Nightshade plant response rating [3, 19]: 95; Plant response rating (0 = no effect, 100 = complete control), Sunflower ([4]; 62 g ai/ha, preemergence): 0; Plant response rating, Sunflower [4, 12]: 0; Sunflower plant response rating [4, 19]: 0; Plant response rating (0 = no effect, 100 = complete control), Surinam Grass ([5]; 62 g ai/ha, preemergence): 0; Plant response rating, Surinam Grass [5, 12]: 5; Surinam Grass plant response rating [5, 19]: 50; Plant response rating (0 = no effect, 100 = complete control), Johnsongrass ([6]; 62 g ai/ha, preemergence): 0; Plant response rating, Johnsongrass [6, 12]: 20; Johnsongrass plant response rating [6, 19]: 60; Plant response rating (0 = no effect, 100 = complete control), Soybean ([7]; 62 g ai/ha, preemergence): 0; Plant response rating, Soybean [7, 12]: 0; Soybean plant response rating [7, 19]: 60; Plant response rating (0 = no effect, 100 = complete control), Goosegrass ([8]; 62 g ai/ha, preemergence): 0; Plant response rating, Goosegrass [8, 12]: 10; Goosegrass plant response rating [8, 19]: 70; Plant response rating, Velvetleaf [9, 16]: 30; Velvetleaf plant response rating [9, 20]: 10; Velvetleaf plant response rating [9, 17]: 35; Plant response rating, Rice ([10]; 125 g ai/ha, 0 to 100 scale, 0 is no effect, 100 is complete control): 0
